Test results as given in ChEMBL document CHEMBL1255302, “Genetic structures at the origin of acquisition of the beta-lactamase bla KPC gene” (2008).
≈ marks a conversion by molar mass, not a printed value.

Columns and labels:
Assay type in all cases: functional
Escherichia coli [1] = test: Antibacterial activity against Escherichia coli harboring pNYC plasmid expressing blaKPC gene by Etest method
Klebsiella pneumoniae [2] = test: Antibacterial activity against Klebsiella pneumoniae YC by Etest method in presence of beta-lactamase inhibitor clavulanic acid
Escherichia coli [3] = test: Antibacterial activity against Escherichia coli DH10B expressing blaKPC gene by Etest method in presence of beta-lactamase inhibitor clavulanic acid
Klebsiella pneumoniae [4] = test: Antibacterial activity against Klebsiella pneumoniae 633 by Etest method in presence of beta-lactamase inhibitor clavulanic acid
Klebsiella pneumoniae [5] = test: Antibacterial activity against Klebsiella pneumoniae GR by Etest method
Escherichia coli [6] = test: Antibacterial activity against Escherichia coli harboring pNGR plasmid expressing blaKPC gene by Etest method
Escherichia coli [7] = test: Antibacterial activity against Escherichia coli harboring pCOL plasmid expressing blaKPC gene by Etest method in presence of beta-lactamase inhibitor clavulanic acid
Pseudomonas aeruginosa [8] = test: Antibacterial activity against Pseudomonas aeruginosa 2404 plasmid by Etest method in presence of beta-lactamase inhibitor clavulanic acid
Escherichia coli [9] = test: Antibacterial activity against Escherichia coli DH10B expressing blaKPC gene by Etest method
Klebsiella pneumoniae [10] = test: Antibacterial activity against Klebsiella pneumoniae KN2303 by Etest method in presence of beta-lactamase inhibitor clavulanic acid
Pseudomonas aeruginosa [11] = test: Antibacterial activity against Pseudomonas aeruginosa KG2505 by Etest method
Pseudomonas aeruginosa [12] = test: Antibacterial activity against Pseudomonas aeruginosa KG2505 by Etest method in presence of beta-lactamase inhibitor clavulanic acid
Escherichia coli [13] = test: Antibacterial activity against Escherichia coli harboring pBC633 plasmid expressing blaKPC gene by Etest method
Klebsiella pneumoniae [14] = test: Antibacterial activity against Klebsiella pneumoniae KN2303 by Etest method
Escherichia coli [15] = test: Antibacterial activity against Escherichia coli harboring pBC2303 expressing blaKPC gene plasmid by Etest method in presence of beta-lactamase inhibitor clavulanic acid
Klebsiella pneumoniae [16] = test: Antibacterial activity against Klebsiella pneumoniae 633 by Etest method
Pseudomonas aeruginosa [17] = test: Antibacterial activity against Pseudomonas aeruginosa KG2505 harboring pCOL plasmid by Etest method
Escherichia coli [18] = test: Antibacterial activity against Escherichia coli harboring pBC2303 expressing blaKPC gene plasmid by Etest method
Escherichia coli [19] = test: Antibacterial activity against Escherichia coli harboring pRYC plasmid expressing blaKPC gene by Etest method
Pseudomonas aeruginosa [20] = test: Antibacterial activity against Pseudomonas aeruginosa 2404 plasmid by Etest method
Escherichia coli [21] = test: Antibacterial activity against Escherichia coli harboring pCOL plasmid expressing blaKPC gene by Etest method
Escherichia coli [22] = test: Antibacterial activity against Escherichia coli harboring pRYC plasmid expressing blaKPC gene by Etest method in presence of beta-lactamase inhibitor clavulanic acid
Escherichia coli [23] = test: Antibacterial activity against Escherichia coli harboring pNYC plasmid expressing blaKPC gene by Etest method in presence of beta-lactamase inhibitor clavulanic acid
Klebsiella pneumoniae [24] = test: Antibacterial activity against Klebsiella pneumoniae YC by Etest method
Escherichia coli [25] = test: Antibacterial activity against Escherichia coli harboring pNGR plasmid expressing blaKPC gene by Etest method in presence of beta-lactamase inhibitor clavulanic acid
Escherichia coli [26] = test: Antibacterial activity against Escherichia coli harboring pBC633 plasmid expressing blaKPC gene by Etest method in presence of beta-lactamase inhibitor clavulanic acid
Klebsiella pneumoniae [27] = test: Antibacterial activity against Klebsiella pneumoniae GR by Etest method in presence of beta-lactamase inhibitor clavulanic acid
Pseudomonas aeruginosa [28] = test: Antibacterial activity against Pseudomonas aeruginosa KG2505 harboring pCOL plasmid by Etest method in presence of beta-lactamase inhibitor clavulanic acid

SMILES	MIC (Escherichia coli [1]) [µg/mL]	MIC (Klebsiella pneumoniae [2]) [µg/mL]	MIC (Escherichia coli [3]) [µg/mL]	MIC (Klebsiella pneumoniae [4]) [µg/mL]	MIC (Klebsiella pneumoniae [5]) [µg/mL]	MIC (Escherichia coli [6]) [µg/mL]	MIC (Escherichia coli [7]) [µg/mL]	MIC (Pseudomonas aeruginosa [8]) [µg/mL]	MIC (Escherichia coli [9]) [µg/mL]	MIC (Klebsiella pneumoniae [10]) [µg/mL]	MIC (Pseudomonas aeruginosa [11]) [µg/mL]	MIC (Pseudomonas aeruginosa [12]) [µg/mL]	MIC (Escherichia coli [13]) [µg/mL]	MIC (Klebsiella pneumoniae [14]) [µg/mL]	MIC (Escherichia coli [15]) [µg/mL]	MIC (Klebsiella pneumoniae [16]) [µg/mL]	MIC (Pseudomonas aeruginosa [17]) [µg/mL]	MIC (Escherichia coli [18]) [µg/mL]	MIC (Escherichia coli [19]) [µg/mL]	MIC (Pseudomonas aeruginosa [20]) [µg/mL]	also measured
CO/N=C(\C(=O)N[C@@H]1C(=O)N2C(C(=O)O)=C(COC(C)=O)CS[C@H]12)c1csc(N)n1 [CEFOTAXIME]	4 (≈ 8.78 µM)	16	0.25	> 32	> 32	4 (≈ 8.78 µM)	0.01	> 32	3 (≈ 6.59 µM)	> 32	0.25 (≈ 0.549 µM)	0.19	32 (≈ 70.3 µM)	> 32	0.38	> 32	> 32	16 (≈ 35.1 µM)	> 32	> 32	MIC (Escherichia coli [21]): 0.05 µg/mL (≈ 0.11 µM); MIC (Escherichia coli [22]): > 32 µg/mL; MIC (Escherichia coli [23]): 2 µg/mL; MIC (Klebsiella pneumoniae [24]): > 32 µg/mL; MIC (Escherichia coli [25]): 0.38 µg/mL; MIC (Escherichia coli [26]): 3 µg/mL; MIC (Klebsiella pneumoniae [27]): 32 µg/mL; MIC (Pseudomonas aeruginosa [28]): > 32 µg/mL
C[C@@H](O)[C@H]1C(=O)N2C(C(=O)O)=C(S[C@@H]3CN[C@H](C(=O)N(C)C)C3)[C@H](C)[C@H]12 [MEROPENEM]	2 (≈ 5.22 µM)	1	0.1	2	6 (≈ 15.6 µM)	0.38 (≈ 0.991 µM)	0.002	> 32	0.38 (≈ 0.991 µM)	> 32	0.05 (≈ 0.13 µM)	0.01	2 (≈ 5.22 µM)	> 32	0.12	4 (≈ 10.4 µM)	> 32	0.38 (≈ 0.991 µM)	3 (≈ 7.82 µM)	> 32	MIC (Escherichia coli [21]): 0.01 µg/mL (≈ 0.0261 µM); MIC (Escherichia coli [22]): 2 µg/mL; MIC (Escherichia coli [23]): 0.25 µg/mL; MIC (Klebsiella pneumoniae [24]): 2 µg/mL (≈ 5.22 µM); MIC (Escherichia coli [25]): 0.01 µg/mL; MIC (Escherichia coli [26]): 0.38 µg/mL; MIC (Klebsiella pneumoniae [27]): 3 µg/mL; MIC (Pseudomonas aeruginosa [28]): 3 µg/mL
CC1(C)S[C@@H]2[C@H](NC(=O)[C@H](C(=O)O)c3ccsc3)C(=O)N2[C@H]1C(=O)O [TICARCILLIN]	> 256	> 256	> 256	> 256	> 256	> 256	1.5	> 256	> 256	> 256	0.38 (≈ 0.988 µM)	0.25	> 256	> 256	> 256	> 256	> 256	> 256	> 256	> 256	MIC (Escherichia coli [21]): 2 µg/mL (≈ 5.2 µM); MIC (Escherichia coli [22]): > 256 µg/mL; MIC (Escherichia coli [23]): > 256 µg/mL; MIC (Klebsiella pneumoniae [24]): > 256 µg/mL; MIC (Escherichia coli [25]): > 256 µg/mL; MIC (Escherichia coli [26]): > 256 µg/mL; MIC (Klebsiella pneumoniae [27]): > 256 µg/mL; MIC (Pseudomonas aeruginosa [28]): > 256 µg/mL
